According to the NIST ThermoML archive (doi:10.1016/j.jct.2006.10.008):

What was measured:
[1] = xn = mol fraction of the nth substance listed; settings: 298.15 K, 101 kPa, Liquid
[2] = excess molar enthalpy (molar enthalpy of mixing); xn = mol fraction of the nth substance listed; settings: 298.15 K, 101 kPa, Liquid, Calvet calorimetry

ClCCCCCCl [1,5-dichloropentane] + CCCOC=O
Settings	excess molar enthalpy [kJ/mol]	mass density [kg/m3]
[1], x2 = 0.0753	–	1084.21
[1], x2 = 0.1495	–	1073.17
[1], x2 = 0.2212	–	1062.01
[1], x2 = 0.2884	–	1051.29
[1], x2 = 0.3607	–	1039.4
[1], x2 = 0.4174	–	1029.7
[1], x2 = 0.4802	–	1018.63
[1], x2 = 0.5386	–	1008.06
[1], x2 = 0.6024	–	996.11
[1], x2 = 0.6568	–	985.57
[1], x2 = 0.7118	–	974.66
[1], x2 = 0.8133	–	953.48
[1], x2 = 0.8586	–	943.64
[1], x2 = 0.9056	–	933.22
[1], x2 = 0.9555	–	921.68
[2], x2 = 0.0792	0.0571	–
[2], x2 = 0.1664	0.0915	–
[2], x2 = 0.2538	0.116	–
[2], x2 = 0.3307	0.121	–
[2], x2 = 0.4063	0.118	–
[2], x2 = 0.4789	0.105	–
[2], x2 = 0.5175	0.0922	–
[2], x2 = 0.5645	0.0738	–
[2], x2 = 0.6145	0.0594	–
[2], x2 = 0.6665	0.0391	–
[2], x2 = 0.7229	0.02	–
[2], x2 = 0.7817	0.0067	–
[2], x2 = 0.8389	-0.0104	–
[2], x2 = 0.8948	-0.0212	–
[2], x2 = 0.9503	-0.012	–

ClCCCCCCCl [1,6-dichlorohexane] + COC=O
Settings	excess molar enthalpy [kJ/mol]	mass density [kg/m3]
[1], x2 = 0.1205	–	1057.33
[1], x2 = 0.2277	–	1050.93
[1], x2 = 0.3234	–	1044.52
[1], x2 = 0.4146	–	1037.85
[1], x2 = 0.4858	–	1032.03
[1], x2 = 0.555	–	1025.73
[1], x2 = 0.6169	–	1019.68
[1], x2 = 0.6713	–	1013.87
[1], x2 = 0.7244	–	1007.71
[1], x2 = 0.7696	–	1002.16
[1], x2 = 0.811	–	996.6
[1], x2 = 0.8479	–	991.36
[1], x2 = 0.8838	–	986.03
[1], x2 = 0.9163	–	980.96
[1], x2 = 0.9461	–	976
[1], x2 = 0.9737	–	970.7
[2], x2 = 0.0953	0.242	–
[2], x2 = 0.2199	0.4592	–
[2], x2 = 0.3324	0.609	–
[2], x2 = 0.4307	0.6964	–
[2], x2 = 0.5033	0.7287	–
[2], x2 = 0.5596	0.7339	–
[2], x2 = 0.5977	0.7378	–
[2], x2 = 0.6601	0.7237	–
[2], x2 = 0.7167	0.6977	–
[2], x2 = 0.7749	0.6517	–
[2], x2 = 0.8296	0.5747	–
[2], x2 = 0.8855	0.4729	–
[2], x2 = 0.935	0.327	–
[2], x2 = 0.974	0.174	–

CCCCCOC=O [pentyl methanoate] + ClCCCCCCl
Settings	excess molar enthalpy [kJ/mol]	mass density [kg/m3]
[1], x1 = 0.0607	–	1082.26
[1], x1 = 0.1185	–	1069.95
[1], x1 = 0.1761	–	1057.7
[1], x1 = 0.2336	–	1045.52
[1], x1 = 0.2924	–	1033.04
[1], x1 = 0.3501	–	1020.86
[1], x1 = 0.4661	–	996.38
[1], x1 = 0.5254	–	983.92
[1], x1 = 0.6434	–	959.15
[1], x1 = 0.7028	–	946.7
[1], x1 = 0.7612	–	934.48
[1], x1 = 0.8194	–	922.34
[1], x1 = 0.8788	–	909.95
[1], x1 = 0.9368	–	897.88
[2], x1 = 0.0613	-0.0127	–
[2], x1 = 0.141	-0.0317	–
[2], x1 = 0.2146	-0.0558	–
[2], x1 = 0.2884	-0.0862	–
[2], x1 = 0.3563	-0.114	–
[2], x1 = 0.4177	-0.131	–
[2], x1 = 0.4725	-0.146	–
[2], x1 = 0.5239	-0.149	–
[2], x1 = 0.5551	-0.152	–
[2], x1 = 0.6165	-0.145	–
[2], x1 = 0.6887	-0.134	–
[2], x1 = 0.7706	-0.114	–
[2], x1 = 0.8586	-0.0783	–
[2], x1 = 0.9347	-0.0417	–
